Test results published in patent US20230143752A1, “CANNABIDIOL NANODRUG FORMULATIONS AND METHODS FOR USE OF THE SAME” (priority 2020, published 2023).

Experiments:
[1] = tested on: mice with Auto-Immune Alopecia; test: Hair regrowth in alopecia mice, topical treatment daily for 12 weeks; format: in vivo; details: for Number of animals per hair regrowth category, Category 0: 0=no hair growth; for Number of animals per hair regrowth category, Category 0 / Number of animals per hair regrowth category, Category 1 / Number of animals per hair regrowth category, Category 2 / Number of animals per hair regrowth category, Category 3 / Number of animals per hair regrowth category, Category 4: six animals per group, topical daily 12 weeks; for Number of animals per hair regrowth category, Category 1: 1=0-25% hair regrowth; for Number of animals per hair regrowth category, Category 2: 2=25-50% hair regrowth; for Number of animals per hair regrowth category, Category 3: 3=50-75% hair regrowth; for Number of animals per hair regrowth category, Category 4: 4=75-100% hair regrowth
Experimental: An animal study was carried out to determine the effect of a CBD nanoparticulate formulation comprising minoxidil as described herein on the induction of hair regrowth in alopecia mice after 12 weeks. In order to collect preliminary information on the reversal of Alopecia by CBD/minoxidil, a randomized pilot study on 24 animals was performed.
Eight- to ten-month-old mice with Auto-Immune Alopecia were randomized into four groups (six animals per group), receiving topical treatments daily for 12 weeks. Group 1 (Control group) received 0.1 ml of control solution applied topically over the ventral area daily for 12 weeks. Group 2 (CBD group) received 20 μg of CBD in 0.1 ml of control solution applied topically over the ventral area daily for 12 weeks. Group 3 (minoxidil) received 0.1 ml of 5% minoxidil solution applied topically over the ventral area daily for 12 weeks. Group 4 (CBD/minoxidil) received 20 μg of CBD and 5% minoxidil in 0.1 ml solution applied topically over the ventral area daily for 12 weeks.
Mice were sacrificed at the end point of a twelve week observation period, and skin biopsies were obtained. Skin biopsies were processed for histopathology.
Reported categories are as follows: 0=no hair growth, 1=0-25% hair regrowth, 2=25-50% hair regrowth, 3=50-75% hair regrowth, 4=75-100% hair regrowth.

[2] = tested on: CTLL-2 cytotoxic T lymphocytes; test: In vitro screening platform for immunomodulation (CTLL-2); format: cell-based; details: CTLL-2, FIG. 4
Experimental: An in vitro screening platform for immunomodulation was used to evaluate nanoparticles for efficacy. CTLL-2 (ATCC®TIB-214™) are cytotoxic T lymphocytes that were purchased and cultured according to ATCC protocol. Once confluent, cells were seeded in a 12-well plate at a concentration of 55,000 cells/mL and treated, in triplicates, with the CBD nanoformulations described herein.
A similar experiment was carried out using CBD alone (not in nanoformulations).
In order to investigate options for improving CBD drug delivery in vitro, CBD was also formulated as a carrier-free nanoparticle and evaluated for efficacy.

[3] = alopecia mice, after 12 weeks, FIG. 6

SMILES	Number of animals per hair regrowth category, Category 0 [1]	Number of animals per hair regrowth category, Category 1 [1]	Number of animals per hair regrowth category, Category 2 [1]	Number of animals per hair regrowth category, Category 3 [1]	Number of animals per hair regrowth category, Category 4 [1]	effect observed in histopathology [1, 3]	hair regrowth, summary ([1]; alopecia mice, 12 weeks topical)	histopathology finding in skin biopsies [1, 3]	reducing T-lymphocytes compared to controls [2]
Nc1cc(N2CCCCC2)nc(N)[n+]1[O-] [Minoxidil, minoxidil]	6	0	0	0	0	No significant effect			
C=C(C)[C@@H]1CCC(C)=C[C@H]1c1c(O)cc(CCCCC)cc1O [CBD, Cannabidiol]	6	0	0	0	0	No significant effect	none of the control (vehicle), CBD alone, or minoxidil alone mice showed significant hair regrowth	miniaturization	effective
